# Where two headings read alike, the source gives them in different places.
# Experiment: Biodistribution in PC-3 tumor-bearing NRG mice (Example 1)
# Assay type: in vivo
# Conditions: male, NRG (NOD.Cg-Rag1tm1Mom Il2rgtm1Wjl/SzJ), mouse, iv, 1.84 MBq, total radioactivity; for tissue uptake at 0.5 h: 30 min p.i.; for tissue uptake at 1 h: 60 min p.i.; for tissue uptake at 2 h: 120 min p.i.
# Protocol: The mice were sacrificed by CO2 inhalation at 30 min, 1 h, and 2 h p.i. Blood was collected by cardiac puncture. Organs/tissues were harvested, rinsed with PBS, blotted dry, and weighed. The activity in tissues was assayed by gamma counter and expressed as the percentage injected dose per gram of tissue (% ID/g).
# [1] = PC-3 tumor, read-out: Biodistribution PC-3 Tumor, Mean
# [2] = adrenals, read-out: Biodistribution Adrenals, Mean
# [3] = bone, read-out: Biodistribution Bone, Mean
# [4] = brain, read-out: Biodistribution Brain, Mean
# [5] = fat, read-out: Biodistribution Fat, Mean
# [6] = intestine, read-out: Biodistribution Intestine, Mean
# [7] = kidney, read-out: Biodistribution Kidney, Mean
# [8] = liver, read-out: Biodistribution Liver, Mean
# [9] = lung, read-out: Biodistribution Lung, Mean
# [10] = muscle, read-out: Biodistribution Muscle, Mean
# [11] = pancreas, read-out: Biodistribution Pancreas, Mean
# [12] = seminal glands, read-out: Biodistribution Seminal glands, Mean
# [13] = spleen, read-out: Biodistribution Spleen, Mean
# [14] = testes, read-out: Biodistribution Testes, Mean
# [15] = whole blood, read-out: Biodistribution Blood, Mean
compound,measurement,setting,value
"CC(C)C[C@@H](CN1CCC[C@H]1C(N)=O)NC(=O)[C@H](Cc1c[nH]cn1)NC(=O)CNC(=O)[C@@H](NC(=O)[C@H](C)NC(=O)[C@H](Cc1c[nH]c2ccccc12)NC(=O)[C@H](CCC(N)=O)NC(=O)[C@@H](Cc1ccccc1)NC(=O)COCC(=O)Nc1ccc(CNC(=O)CN2CCN(CC(=O)O)CCN(CC(=O)O)CCN(CC(=O)O)CC2)cc1)C(C)C [^68Ga-ProBOMB1, metal not drawn]",tissue uptake at 0.5 h,[1],4.62 %ID/g
same,tissue uptake at 1 h,[1],8.17 %ID/g
same,tissue uptake at 2 h,[1],8.31 %ID/g
same,tissue uptake at 0.5 h,[2],0.95 %ID/g
same,tissue uptake at 1 h,[2],0.65 %ID/g
same,tissue uptake at 2 h,[2],1.23 %ID/g
same,tissue uptake at 0.5 h,[3],0.22 %ID/g
same,tissue uptake at 1 h,[3],0.26 %ID/g
same,tissue uptake at 2 h,[3],0.39 %ID/g
same,tissue uptake at 0.5 h,[4],0.02 %ID/g
same,tissue uptake at 1 h,[4],0.02 %ID/g
same,tissue uptake at 2 h,[4],0.03 %ID/g
same,tissue uptake at 0.5 h,[5],0.17 %ID/g
same,tissue uptake at 1 h,[5],0.06 %ID/g
same,tissue uptake at 2 h,[5],0.07 %ID/g
same,tissue uptake at 0.5 h,[6],2.63 %ID/g
same,tissue uptake at 1 h,[6],2.47 %ID/g
same,tissue uptake at 2 h,[6],1.68 %ID/g
same,tissue uptake at 0.5 h,[7],2.83 %ID/g
same,tissue uptake at 1 h,[7],1.4 %ID/g
same,tissue uptake at 2 h,[7],0.78 %ID/g
same,tissue uptake at 0.5 h,[8],1.93 %ID/g
same,tissue uptake at 1 h,[8],1.21 %ID/g
same,tissue uptake at 2 h,[8],0.75 %ID/g
same,tissue uptake at 0.5 h,[9],0.54 %ID/g
same,tissue uptake at 1 h,[9],0.35 %ID/g
same,tissue uptake at 2 h,[9],0.25 %ID/g
same,tissue uptake at 0.5 h,[10],0.36 %ID/g
same,tissue uptake at 1 h,[10],0.09 %ID/g
same,tissue uptake at 2 h,[10],0.08 %ID/g
same,tissue uptake at 0.5 h,[11],10.3 %ID/g
same,tissue uptake at 1 h,[11],4.68 %ID/g
same,tissue uptake at 2 h,[11],1.55 %ID/g
same,tissue uptake at 0.5 h,[12],0.17 %ID/g
same,tissue uptake at 1 h,[12],1.08 %ID/g
same,tissue uptake at 2 h,[12],0.43 %ID/g
same,tissue uptake at 0.5 h,[13],0.5 %ID/g
same,tissue uptake at 1 h,[13],0.44 %ID/g
same,tissue uptake at 2 h,[13],0.31 %ID/g
same,tissue uptake at 0.5 h,[14],0.31 %ID/g
same,tissue uptake at 1 h,[14],0.11 %ID/g
same,tissue uptake at 2 h,[14],0.09 %ID/g
same,tissue uptake at 0.5 h,[15],1.06 %ID/g
same,tissue uptake at 1 h,[15],0.4 %ID/g
same,tissue uptake at 2 h,[15],0.13 %ID/g
